Source: the supplement of paper PMC11451515

System: P12-Ichikawa
Test: cell viability relative to DMSO control; higher = less cytotoxic
Conditions: 48 h
How it was run: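 NOMO1 or SEM (500 cells/well) or P12-Ichikawa (1000 cells/well) leukemia cells were adapted for at least four passages in each medium. They were seeded in 1536-well plates (5 μl) and pin-dosed with library compounds in DMSO over an 11-point threefold series, 47 μM to 0.79 nM. CellTiter-Glo One luminescence was read after 48 h at 37°C. Viability is the per-plate percentage relative to DMSO wells, with cell-free wells as background.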

[1] = HPLM + 10% dialyzed FBS, 0.000781 µM
[2] = HPLM + 10% dialyzed FBS, 0.00234 µM
[3] = HPLM + 10% dialyzed FBS, 0.00702 µM
[4] = HPLM + 10% dialyzed FBS, 0.0211 µM
[5] = HPLM + 10% dialyzed FBS, 0.0632 µM
[6] = HPLM + 10% dialyzed FBS, 0.19 µM
[7] = HPLM + 10% dialyzed FBS, 0.569 µM
[8] = HPLM + 10% dialyzed FBS, 1.71 µM
[9] = HPLM + 10% dialyzed FBS, 5.12 µM
[10] = HPLM + 10% dialyzed FBS, 15.4 µM
[11] = HPLM + 10% dialyzed FBS, 46.1 µM
[12] = RPMI 5 mM glucose + 10% FBS, 0.000781 µM
[13] = RPMI 5 mM glucose + 10% FBS, 0.00234 µM
[14] = RPMI 5 mM glucose + 10% FBS, 0.00702 µM
[15] = RPMI 5 mM glucose + 10% FBS, 0.0211 µM
[16] = RPMI 5 mM glucose + 10% FBS, 0.0632 µM
[17] = RPMI 5 mM glucose + 10% FBS, 0.19 µM
[18] = RPMI 5 mM glucose + 10% FBS, 0.569 µM
[19] = RPMI 5 mM glucose + 10% FBS, 1.71 µM
[20] = RPMI 5 mM glucose + 10% FBS, 5.12 µM
[21] = RPMI 5 mM glucose + 10% FBS, 15.4 µM
[22] = RPMI 5 mM glucose + 10% FBS, 46.1 µM
[23] = RPMI 5 mM glucose + 10% dialyzed FBS, 0.000781 µM
[24] = RPMI 5 mM glucose + 10% dialyzed FBS, 0.00234 µM
[25] = RPMI 5 mM glucose + 10% dialyzed FBS, 0.00702 µM
[26] = RPMI 5 mM glucose + 10% dialyzed FBS, 0.0211 µM
[27] = RPMI 5 mM glucose + 10% dialyzed FBS, 0.0632 µM
[28] = RPMI 5 mM glucose + 10% dialyzed FBS, 0.19 µM
[29] = RPMI 5 mM glucose + 10% dialyzed FBS, 0.569 µM
[30] = RPMI 5 mM glucose + 10% dialyzed FBS, 1.71 µM
[31] = RPMI 5 mM glucose + 10% dialyzed FBS, 5.12 µM
[32] = RPMI 5 mM glucose + 10% dialyzed FBS, 15.4 µM
[33] = RPMI 5 mM glucose + 10% dialyzed FBS, 46.1 µM

Compound | cell viability [1] [%] | cell viability [2] [%] | cell viability [3] [%] | cell viability [4] [%] | cell viability [5] [%] | cell viability [6] [%] | cell viability [7] [%] | cell viability [8] [%] | cell viability [9] [%] | cell viability [10] [%] | cell viability [11] [%] | cell viability [12] [%] | cell viability [13] [%] | cell viability [14] [%] | cell viability [15] [%] | cell viability [16] [%] | cell viability [17] [%] | cell viability [18] [%] | cell viability [19] [%] | cell viability [20] [%] | cell viability [21] [%] | cell viability [22] [%] | cell viability [23] [%] | cell viability [24] [%] | cell viability [25] [%] | cell viability [26] [%] | cell viability [27] [%] | cell viability [28] [%] | cell viability [29] [%] | cell viability [30] [%] | cell viability [31] [%] | cell viability [32] [%] | cell viability [33] [%]
O=C(O)c1nn(Cc2ccc(Cl)cc2Cl)c2ccccc12 | 94.1 | 93 | 97.1 | 92.5 | 89.5 | 84 | 81.1 | 88.9 | 89.6 | 79.2 | 87.1 | 87.5 | 86.6 | 95.3 | 85.2 | 86.1 | 85.7 | 84.3 | 82.2 | 89.5 | 85.2 | 84.2 | 87.6 | 79.1 | 89.1 | 86.4 | 81.3 | 74 | 73.9 | 74.4 | 81.5 | 71.7 | 76.9
C=C1C(=O)O[C@@H]2[C@H]3O[C@]3(C)CC/C=C(\C)CC[C@@H]12 | 106 | 104 | 114 | 114 | 119 | 124 | 122 | 79.6 | 5.39 | 2.97 | 2.95 | 103 | 109 | 117 | 117 | 127 | 127 | 125 | 101 | 13.5 | 3.52 | 2.86 | 105 | 112 | 118 | 125 | 127 | 123 | 121 | 91.8 | 5.63 | 2.98 | 2.57
Cc1ccc(Nc2nccc(N(C)c3ccc4c(C)n(C)nc4c3)n2)cc1[S+](N)(=O)[O-] | 105 | 102 | 105 | 110 | 108 | 114 | 113 | 111 | 104 | 91.9 | 20.8 | 106 | 115 | 109 | 109 | 113 | 116 | 113 | 111 | 120 | 78.4 | 23.7 | 99.7 | 101 | 104 | 102 | 102 | 99.9 | 110 | 107 | 108 | 83.3 | 27.8
COc1cc2nc(N3CCN(C(=O)c4ccco4)CC3)nc(N)c2cc1OC | 88.4 | 91.4 | 95 | 102 | 99 | 93.2 | 110 | 84.7 | 97.1 | 55.1 | 4.81 | 84.1 | 88.8 | 97.8 | 91.6 | 98.2 | 103 | 87 | 95 | 91.2 | 98.9 | 5.43 | 77.1 | 74.4 | 91 | 80.1 | 90.7 | 85.3 | 93.5 | 89.1 | 90.1 | 95.1 | 5.58
CCCCCCCN(CC)CCCC(O)c1ccc(NS(C)(=O)=O)cc1.CCCCCCCN(CC)CCCC(O)c1ccc(NS(C)(=O)=O)cc1.O=C(O)/C=C/C(=O)O (centres undefined) | 111 | 108 | 116 | 111 | 101 | 125 | 113 | 112 | 112 | 88.9 | 77.7 | 107 | 118 | 113 | 108 | 85.4 | 115 | 116 | 111 | 102 | 89.6 | 69.1 | 100 | 101 | 106 | 113 | 94.8 | 108 | 111 | 113 | 98.9 | 93 | 69.2
CCNC(=O)c1noc(-c2cc(C(C)C)c(O)cc2O)c1-c1ccc(CN2CCOCC2)cc1 | 103 | 111 | 112 | 113 | 109 | 52 | 53.9 | 50.1 | 52 | 45.8 | 44.2 | 111 | 116 | 115 | 117 | 97.4 | 41 | 43.5 | 39.6 | 47.2 | 40.1 | 35.8 | 96.9 | 112 | 108 | 115 | 100 | 42.1 | 43.8 | 41.1 | 44.9 | 39.4 | 37.3
N#C[C@@H]1C[C@@H]2C[C@@H]2N1C(=O)[C@@H](N)C12CC3CC(CC(O)(C3)C1)C2 | 121 | 123 | 115 | 122 | 122 | 114 | 122 | 110 | 109 | 110 | 108 | 132 | 123 | 120 | 120 | 116 | 123 | 128 | 107 | 111 | 110 | 97.6 | 122 | 128 | 121 | 118 | 124 | 114 | 121 | 123 | 112 | 111 | 108
COc1cc([C@@H]2c3cc4c(cc3[C@@H](O[C@@H]3O[C@@H]5CO[C@@H](C)O[C@H]5[C@H](O)[C@H]3O)[C@H]3COC(=O)[C@H]23)OCO4)cc(OC)c1O | 87.1 | 89.5 | 90.2 | 80.9 | 76.8 | 85.8 | 73.1 | 12.1 | 3.56 | 1.85 | 6.17 | 79.5 | 86.9 | 78.2 | 76 | 83.6 | 67.6 | 51.7 | 6.56 | 3.5 | 3.55 | 4.21 | 73.4 | 78.2 | 84.7 | 78.1 | 78.7 | 74.1 | 63.9 | 8.76 | 4.69 | 3.79 | 4.42
